Assay results as given in PMC6269433, “Biocatalytic production of adiponitrile and related aliphatic linear α,ω-dinitriles” (Nature Communications, 2018).

Tests used:
Type in all cases: cell-based
[1] = target: T1, OxdA (Pseudomonas chlororaphis, UniProt Q7WSJ4); assay: whole-cell dehydration to adiponitrile, GC; conditions: E. coli resting cells, 50 mM potassium phosphate pH 7.0, 30 °C, argon, with or without 20% DMSO; activity only per bio wet weight
T1 construct: recombinant in E. coli, resting whole cells; plasmid details only in supplement; ferrous heme enzyme
T1 sequence (Q7WSJ4 1-352): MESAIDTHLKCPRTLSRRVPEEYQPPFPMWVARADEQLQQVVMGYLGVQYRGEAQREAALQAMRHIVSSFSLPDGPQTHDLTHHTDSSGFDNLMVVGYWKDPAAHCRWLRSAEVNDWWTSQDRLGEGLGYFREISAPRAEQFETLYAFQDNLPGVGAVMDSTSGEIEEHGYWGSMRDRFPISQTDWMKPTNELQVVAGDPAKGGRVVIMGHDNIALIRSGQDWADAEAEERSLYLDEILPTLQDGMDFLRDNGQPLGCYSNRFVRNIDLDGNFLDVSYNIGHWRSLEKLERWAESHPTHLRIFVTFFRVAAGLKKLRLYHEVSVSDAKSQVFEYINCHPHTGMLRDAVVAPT

[2] = target: T2, OxdB (Bacillus sp. OxB-1, UniProt P82604); assay: whole-cell dehydration to adiponitrile, GC; conditions: E. coli resting cells, 50 mM potassium phosphate pH 7.0, 30 °C, argon, with or without 20% DMSO; activity only per bio wet weight
T2 construct: gene oxd; recombinant in E. coli, resting whole cells; plasmid details only in supplement; ferrous heme enzyme
T2 sequence (P82604 2-351): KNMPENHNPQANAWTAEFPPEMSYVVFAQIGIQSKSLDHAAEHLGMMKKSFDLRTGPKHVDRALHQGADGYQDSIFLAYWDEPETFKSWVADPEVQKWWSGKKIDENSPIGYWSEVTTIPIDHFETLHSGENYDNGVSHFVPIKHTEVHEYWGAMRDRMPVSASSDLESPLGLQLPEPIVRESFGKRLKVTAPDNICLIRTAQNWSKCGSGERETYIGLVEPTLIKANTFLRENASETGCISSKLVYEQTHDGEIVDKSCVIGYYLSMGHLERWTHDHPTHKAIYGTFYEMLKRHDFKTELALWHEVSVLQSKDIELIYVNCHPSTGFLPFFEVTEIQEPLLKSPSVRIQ

[3] = target: T1, OxdA; assay: whole-cell dehydration to the dinitrile, analytical scale; conditions: E. coli resting cells; substrate 3.0-75 mM range; activity only per bio wet weight
[4] = target: T2, OxdB; assay: as above; conditions: E. coli resting cells; substrate 3.0-75 mM range; activity only per bio wet weight

ON=CCCCCC=NO [1d, adipaldehyde dioxime]
whole-cell dehydration to adiponitrile, GC [1]: the C6-C10-dialdoximes (1d-h) were converted by both Oxds completely with excellent efficiency
whole-cell dehydration to adiponitrile, GC [2]: the C6-C10-dialdoximes (1d-h) were converted by both Oxds completely with excellent efficiency

ON=CCCCCCCC=NO [1f, C8-dialdoxime]
whole-cell dehydration to the dinitrile, analytical scale [3]: the C6-C10-dialdoximes (1d-h) were converted by both Oxds completely with excellent efficiency
whole-cell dehydration to the dinitrile, analytical scale [4]: the C6-C10-dialdoximes (1d-h) were converted by both Oxds completely with excellent efficiency
